Assay results published in US11350632B2, “Methods, compositions and systems for killing arthropods” (Imerys USA, Inc., priority 2016, dated 2022).

Key:
Assay in all cases: Field trial weekly bioassay on pre-treated substrate
Format in all cases: in vivo
[1] = test system: Aedes aegypti; set-up: mortality found (summary of field trial): concentration or dose not given beside the values
Description: (§1) During a field trial in New Orleans, bioassays were performed with (1) the expanded, milled ultrafine perlite of Example 1, (2) a lambda-cyhalothrin insecticide (BASF) as positive control, and (3) a negative control (water only). Six samples of each insecticide (1) and (2) and the control (3) were tested against mosquito species Aedes aegypti (dengue and zika vector), Aedes albopictus (tiger mosquito), and Culex quinquefasciatus (nuisance mosquito) by spraying wood chips stored under houses using a STIHL SR 200 backpack sprayer (18 houses total). The houses were selected based on housing structure (raised house), backyard vegetation (green and lush), and location (suburban neighborhood).
(§2) The lambda cyhalothrin (industry standard insecticide) was prepared according to manufacturer instructions. Lambda cyhalothrin insecticide was diluted with water for spray application. First the application tank was filled with one-half to three-fourths volume of water. The pH of the water was controlled between 5 and 7 using a buffering agent if necessary to adjust the pH. Next, lambda cyhalothrin insecticide was slowly added to the applicator tank water with maximum agitation. Finally, the tank was filled to the desired volume with continuous agitation while applying the spray. To prepare the perlite insecticide spraying solutions, two-thirds of a gallon of water, 0.32 ounces of non-ionic surfactant (Ninex MT615), and 2 lbs expanded, milled ultrafine perlite were thoroughly blended together in a spray tank. Another one-third gallon of water was then added for a total 1 gallon of spray solution containing 20% of ultrafine perlite mechanical insecticide, 79% of water and 1% of Ninex MT615 as dispersant. The ultrafine perlite solution was mixed directly prior to spraying.
(§3) The ultrafine perlite insecticide, the positive control (lambda cyhalothrin) and the negative control (water) were sprayed directly under the raised houses and porches (which included eaves if reachable) and under vegetation with an applicator. Pre-treated substrates were also prepared for each location by applying the corresponding insecticide or control to a piece of pine. The target coverage was 5-8 ounces per 100 ft^2, with an average coverage of about 10 g/m^2 to 15 g/m^2.
(§4) Adult mosquitos for each species were introduced to each location, and were identified and counted two weeks prior to the start of the bioassays. Weekly bioassays were performed to test the efficacy of the insecticides over time by collecting a pre-treated substrate from each site and placing ˜10 female mosquitos of the corresponding species into a labeled bioassay cup with the substrate. The cup was then placed in a growth chamber/counter (depending on temperature) for 1 hour and then 24 hours with sugar solution. The number of dead and live mosquitos was recorded and compared to determine the percent mortality. Results are shown in Tables 8-10, in which 100% indicates complete mortality of mosquitoes and 0% indicates zero mortality (no mosquito deaths).

[2] = test system: Aedes albopictus; set-up: concentration or dose not given beside the values
Description: as §1, §2, §3, §4

[3] = test system: Culex quinquefasciatus; set-up: concentration or dose not given beside the values
Description: as §1, §2, §3, §4

[4] = Week 0, ~10 female mosquitos with pre-treated substrate
[5] = week not stated, each mosquito species

CC1(C)[C@H](C(=O)O[C@H](C#N)c2cccc(Oc3ccccc3)c2)[C@@H]1/C=C(\Cl)C(F)(F)F (racemic) [Lambda cyhalothrin, lambda-cyhalothrin]
97%: Mortality (%) of Culex quinquefasciatus ([3]; Week 4)
100%: Mortality (%) of Andes aegypti ([1]; Week 2) | Mortality (%) of Andes aegypti ([1]; Week 3) | Mortality (%) of Andes aegypti ([1]; Week 4) | Mortality (%) of Andes aegypti ([1]; Week 5 (heavy rainfall)) | Mortality (%) of Andes aegypti ([1]; Week 6) | Mortality (%) of Andes aegypti ([1]; Week 7) | Mortality (%) of Andes aegypti ([1]; Week 8) | mortality found (summary of field trial) [1, 5] | Mortality (%) of Andes albopictus ([2]; Week 2) | Mortality (%) of Andes albopictus ([2]; Week 3) | Mortality (%) of Andes albopictus ([2]; Week 4) | Mortality (%) of Andes albopictus ([2]; Week 5 (heavy rainfall)) | Mortality (%) of Andes albopictus ([2]; Week 6) | Mortality (%) of Andes albopictus ([2]; Week 7) | Mortality (%) of Andes albopictus ([2]; Week 8) | mortality found (summary of field trial) [2, 5] | Mortality (%) of Culex quinquefasciatus ([3]; Week 2) | Mortality (%) of Culex quinquefasciatus ([3]; Week 3) | Mortality (%) of Culex quinquefasciatus ([3]; Week 5 (heavy rainfall)) | Mortality (%) of Culex quinquefasciatus ([3]; Week 7) | Mortality (%) of Culex quinquefasciatus ([3]; Week 8) | mortality found (summary of field trial) [3, 5]
93%: Mortality (%) of Culex quinquefasciatus ([3]; Week 6)
0%: Mortality (%) of Andes aegypti [1, 4] | Mortality (%) of Andes aegypti ([1]; Week 1) | Mortality (%) of Andes albopictus [2, 4] | Mortality (%) of Andes albopictus ([2]; Week 1) | Mortality (%) of Culex quinquefasciatus [3, 4] | Mortality (%) of Culex quinquefasciatus ([3]; Week 1)
